According to article PMC6921082, “Molecular Characterization of a Novel Cold-Active Hormone-Sensitive Lipase (HaHSL) from Halocynthiibacter Arcticus” (Biomolecules, 2019):

The molecules below were run against T1, HaHSL (Falsihalocynthiibacter arcticus, UniProt A0A126UZB4) (assay: p-nitrophenol release at […] nm, Lineweaver-Burk). Conditions: free enzyme; 20 mM Tris-HCl, 100 mM NaCl, pH 7.4 (spectroscopic analyses); standard assay pH 8.0, 25 °C.
T1 construct: gene RC74_09005; full-length ORF (789 bp); mass peak 31,740; monomer; catalytic Ser138, Glu216, His244
Type: biochemical

T1 sequence (A0A126UZB4 entry or part of it): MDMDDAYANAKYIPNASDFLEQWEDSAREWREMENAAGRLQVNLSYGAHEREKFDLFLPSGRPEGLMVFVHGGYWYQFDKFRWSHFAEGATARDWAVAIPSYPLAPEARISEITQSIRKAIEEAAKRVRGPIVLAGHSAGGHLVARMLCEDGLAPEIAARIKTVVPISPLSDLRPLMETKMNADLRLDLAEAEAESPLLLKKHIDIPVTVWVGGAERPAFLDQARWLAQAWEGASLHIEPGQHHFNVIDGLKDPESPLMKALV

| Km [µM] | SMILES |
| --- | --- |
| 2320 ± 630 | CCCCCC(=O)Oc1ccc([N+](=O)[O-])cc1 [p-nitrophenyl hexanoate] |
| 1970 ± 530 | CCCC(=O)Oc1ccc([N+](=O)[O-])cc1 [p-nitrophenyl butyrate] |
| 210 | CC(=O)Oc1ccc([N+](=O)[O-])cc1 [p-nitrophenyl acetate] |
